Assay results: US20100010053A1, “COMPOUNDS” (priority 2008, published 2010)

Experiments:
[1] = molecular target: T1, human S1P3 receptor (EDG3) (Homo sapiens, UniProt Q99500); test: S1P3 GTPγS assay or S1P3 GeneBlazer assay (at least one of the above assays); type: cell-based; conditions: given as EC50
T1 construct: expressed in transfected cells; host or cells: rat basophilic leukaemia cells RBL-2H3 (membranes, GTPγS assay) or GeneBLAzer EDG3-Ga15-NFAT-bla HEK 293T cells
Description: S1P3 membranes from rat basophilic leukaemia cells (RBL-2H3) (1.5 μg/well) were adhered to WGA-coated SPA beads (0.125 mg/well) in assay buffer (HEPES 20 mM, MgCl2 3 mM, NaCl 100 mM and pH adjusted to 7.4 using KOH 5M), GDP 10 μM FAC and saponin 90 μg/ml FAC was also added).
(§1) After 30 minutes pre-coupling on ice the bead and membrane suspension was dispensed into a white Greiner polypropylene LV384-well plate (5 μl/well), containing 0.1 μl of the compound. 5 μl/well [^35S]-GTPγS (0.5 nM final radioligand conc) made up in assay buffer was then added to agonist plates. The final assay cocktail (10.1 μl) was centrifuged at 1000 rpm for 5 minutes then read immediately on a Viewlux reader.
All test compounds were dissolved in DMSO at a concentration of 10 mM and were prepared in 100% DMSO using a 1 in 4 dilution step to provide 11 point dose response curves. The dilutions were transferred to the assay plates ensuring that the DMSO concentration was constant across the plate for all assays. […]
After incubation at 37° C., 5% CO2 for 5 h, 25 μl of 6× substrate mixture (6 μl Solution A (1 mg LiveBLAzer™-FRET B/G Substrate (CCF4-AM) in 912 μl DMSO) plus 60 μl Solution B plus 934 μl Solution C) was added to each well and incubate at room temperature for 2 h in dark. The plate was finally read on EnVision for two emission channels (460 nm and 530 nm). […]

[2] = molecular target: T2, human S1P1 receptor (EDG1) (Homo sapiens, UniProt P21453); test: S1P1 GTPγS assay or S1P1 Tango assay (at least one of the above assays); type: cell-based; conditions: read-out: pEC50 in at least one of the above assays (converted)
T2 construct: TEV protease site + Gal4-VP16 transcription factor (only in the Tango assay cells; not described for the GTPγS membranes); expressed in transfected cells; host or cells: rat hepatoma cells (membranes, GTPγS assay) or Tango EDG1-bla U2OS cells (Tango assay)
Description: For membrane preparations all steps were performed at 4° C. Rat hepatoma cells stably expressing the human S1P1 receptor or Rat Basophilic Leukaemia cells (RBL) stably expressing human S1P3 receptor were grown to 80% confluency before being harvested into 10 ml Phospho-Buffered Saline (PBS) and centrifuged at 1200 rpm for 5 minutes. After removal of the supernatant, the pellet was re-suspended and cells were homogenised within a glass Waring blender for 2 bursts of 15 secs in 200 mls of buffer (50 mM HEPES, 1 mM leupeptin, 25 μg/ml bacitracin, 1 mM EDTA, 1 mM PMSF, 2 μM pepstatin A). The blender was plunged into ice for 5 mins after the first burst and 10-40 mins after the final burst to allow foam to dissipate. The material was then spun at 500 g for 20 mins and the supernatant spun for 36 mins at 48,000 g. The pellet was resuspended in the same buffer as above but without PMSF and pepstatin A. The material was then forced through a 0.6 mm needle, made up to the required volume, (usually ×4 the volume of the original cell pellet), aliquoted and stored frozen at −80° C. S1P1 GTPγS assay Human S1P1 rat hepatoma membranes (1.5 μg/well) were adhered to a wheatgerm agglutinin (WGA)-coated scintillation proximity assay (SPA) beads (0.125 mg/well) in assay buffer (HEPES 20 mM, MgCl2 10 mM, NaCl 100 mM and pH adjusted to 7.4 using KOH 5M, GDP 10 μM FAC (final assay concentration) and saponin 90 μg/ml FAC was also added).
as §1, with “μl) was then centrifuged at” for “μl) was centrifuged at”
All test compounds were dissolved in DMSO at a concentration of 10 mM and were prepared in 100% DMSO using a 1 in 4 dilution step to provide 11 point dose response curves. The dilutions were transferred to the assay plates ensuring that the DMSO concentration was constant across the plate for all assays.
All data was normalized to the mean of 16 high and 16 low control wells on each plate. A four parameter curve fit was then applied.
Recombinant EDG1-bla/U2OS cells (contain the human Endothelial Differentiation Gene 1 (EDG1) linked to a TEV protease site and a Gal4-VP16 transcription factor stably integrated into the Tango GPCR-bla U2OS parental cell line) were suspended in assay medium (Invitrogen Freestyle Expression Medium) at a density of 312, 500 cells/ml. Add 100 μl/well of the assay medium to the cell-free control wells (column 12) and 100 μl/well of the cell suspension to the test compound wells (row 2-8, column 1-10), the unstimulated control wells (DMSO) (column 11), and stimulated control wells (S1P) (row 1, column 1-10) in a Corning black-well, clear bottom 96-well plate. Cells were incubated at 37° C., 5% CO2 for 44-48 h. Add 25 μl of 5× stock solution of test compounds in assay medium with 0.5% DMSO to the test compound wells, 25 μl of 5× stock solution of agonist (S1P) in assay medium with 0.5% DMSO to the stimulated compound wells, and 25 μl of 5× stock solution of 0.5% DMSO in assay medium to the unstimulated control and cell-free control wells.
After incubation at 37° C., 5% CO2 for 5 h, 25 μl of 6× substrate mixture (6 μl Solution A (1 mg LiveBLAzer™-FRET B/G substrate (CCF4-AM) in 912 μl DMSO) plus 60 μl Solution B plus 934 μl Solution C) was added to each well and incubate at room temperature for 2 h in dark. The plate was finally read on EnVision for two emission channels (460 nm and 530 nm).
All test compounds were dissolved in DMSO at a concentration of 10 mM and were prepared in 100% DMSO using a 1 in 5 dilution step to provide 10 point dose response curves. […]

circulating lymphocytes = conditions: animals and man; cited from earlier work
[3] = clinical studies, first 24 hours of treatment; cited from earlier work

T2 sequence (P21453 whole entry, the tested form may be a part): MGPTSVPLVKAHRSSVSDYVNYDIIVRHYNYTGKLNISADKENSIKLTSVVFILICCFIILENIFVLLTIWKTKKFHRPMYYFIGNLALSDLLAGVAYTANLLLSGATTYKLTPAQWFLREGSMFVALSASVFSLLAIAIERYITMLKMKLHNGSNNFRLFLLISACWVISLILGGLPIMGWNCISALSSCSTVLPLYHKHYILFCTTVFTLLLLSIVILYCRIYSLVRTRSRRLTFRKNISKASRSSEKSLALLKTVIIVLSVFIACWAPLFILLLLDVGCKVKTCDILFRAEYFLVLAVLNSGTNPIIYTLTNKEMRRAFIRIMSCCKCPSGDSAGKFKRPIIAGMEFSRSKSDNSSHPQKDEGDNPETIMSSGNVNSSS
T1 sequence (Q99500 whole entry): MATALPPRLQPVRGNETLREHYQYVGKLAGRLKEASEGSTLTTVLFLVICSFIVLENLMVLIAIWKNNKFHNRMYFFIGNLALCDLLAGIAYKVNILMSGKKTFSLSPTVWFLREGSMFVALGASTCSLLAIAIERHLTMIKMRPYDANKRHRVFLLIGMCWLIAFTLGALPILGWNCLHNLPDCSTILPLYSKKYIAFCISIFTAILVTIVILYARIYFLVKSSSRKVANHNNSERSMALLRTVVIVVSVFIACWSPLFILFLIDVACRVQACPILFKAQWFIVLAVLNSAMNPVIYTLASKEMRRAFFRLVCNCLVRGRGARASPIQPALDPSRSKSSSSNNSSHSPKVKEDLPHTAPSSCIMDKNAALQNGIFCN

Row | EC50 [2] [µM] | Structure (SMILES) | further results
1 | – | CC(C)Oc1ccc(-c2nc(-c3cccc4c([C@H]5C[C@H]5C(=O)O)cn(C)c34)no2)cc1Cl (relative stereo) [Example 40, cis-2-[7-(5-{3-chloro-4-[(1-methylethyl)oxy]phenyl}-1,2,4-oxadiazol-3-yl)-1-methyl-1H-indol-3-yl]cyclopropanecarboxylic acid] | EC50 [1]: 0.316 µM
2 | < 0.01 | CC(C)Oc1ccc(-c2nc(-c3cccc4c(CCOCC(=O)O)cn(C)c34)no2)cc1Cl [Example 79, ({2-[7-(5-{3-chloro-4-[(1-methylethyl)oxy]phenyl}-1,2,4-oxadiazol-3-yl)-1-methyl-1H-indol-3-yl]ethyl}oxy)acetic acid] | –
3 | < 0.01 | CC(C)Oc1ccc(-c2nc(-c3cccc4c(CCCOCC(=O)O)cn(C)c34)no2)cc1Cl [Example 80, ({3-[7-(5-{3-chloro-4-[(1-methylethyl)oxy]phenyl}-1,2,4-oxadiazol-3-yl)-1-methyl-1H-indol-3-yl]propyl}oxy)acetic acid] | –
4 | < 0.01 | CC(C)Oc1ccc(-c2nc(-c3ccc4[nH]c(CCC(=O)O)cc4c3)no2)cc1C#N [Example 89, 3-[5-(5-{3-cyano-4-[(1-methylethyl)oxy]phenyl}-1,2,4-oxadiazol-3-yl)-1H-indol-2-yl]propanoic acid] | –
5 | < 0.01 | CC(C)Oc1ncc(-c2nc(-c3cc(F)cc4c(CCC(=O)O)c[nH]c34)no2)cc1Cl [Example 101, 3-[7-(5-{5-Chloro-6-[(1-methylethyl)oxy]-3-pyridinyl}-1,2,4-oxadiazol-3-yl)-5-fluoro-1H-indol-3-yl]propanoic acid] | –
6 | < 0.001 | CC(C)Oc1ncc(-c2nc(-c3cc(F)cc4c(CCC(=O)O)cn(C)c34)no2)cc1Cl [Example 102, 3-[7-(5-{5-Chloro-6-[(1-methylethyl)oxy]-3-pyridinyl}-1,2,4-oxadiazol-3-yl)-5-fluoro-1-methyl-1H-indol-3-yl]propanoic acid] | –
7 | < 0.001 | CC(C)Oc1ccc(-c2nc(-c3c(F)ccc4c(CCC(=O)O)c[nH]c34)no2)cc1Cl [Example 103, 3-[7-(5-{3-Chloro-4-[(1-methylethyl)oxy]phenyl}-1,2,4-oxadiazol-3-yl)-6-fluoro-1H-indol-3-yl]propanoic acid] | –
8 | < 0.01 | CC(C)Oc1ccc(-c2nc(-c3c(F)ccc4c(CCC(=O)O)cn(C)c34)no2)cc1Cl [Example 104, 3-[7-(5-{3-Chloro-4-[(1-methylethyl)oxy]phenyl}-1,2,4-oxadiazol-3-yl)-6-fluoro-1-methyl-1H-indol-3-yl]propanoic acid] | –
9 | < 0.001 | CC(C)Oc1ccc(-c2nc(-c3c(F)ccc4c(CCC(=O)O)c[nH]c34)no2)cc1C#N [Example 105, 3-[7-(5-{3-Cyano-4-[(1-methylethyl)oxy]phenyl}-1,2,4-oxadiazol-3-yl)-6-fluoro-1H-indol-3-yl]propanoic acid] | –
10 | < 0.01 | CC(C)Oc1ccc(-c2nc(-c3c(F)ccc4c(CCC(=O)O)cn(C)c34)no2)cc1C#N [Example 106, 3-[7-(5-{3-Cyano-4-[(1-methylethyl)oxy]phenyl}-1,2,4-oxadiazol-3-yl)-6-fluoro-1-methyl-1H-indol-3-yl]propanoic acid] | –
11 | < 0.001 | CC(C)Oc1ccc(-c2nc(-c3cc4[nH]cc(CCC(=O)O)c4cc3F)no2)cc1Cl [Example 109, 3-[6-(5-{3-Chloro-4-[(1-methylethyl)oxy]phenyl}-1,2,4-oxadiazol-3-yl)-5-fluoro-1H-indol-3-yl]propanoic acid] | –
12 | < 0.001 | CC(C)Oc1ccc(-c2nc(-c3cc4[nH]cc(CCC(=O)O)c4cc3F)no2)cc1C#N [Example 110, 3-[6-(5-{3-Cyano-4-[(1-methylethyl)oxy]phenyl}-1,2,4-oxadiazol-3-yl)-5-fluoro-1H-indol-3-yl]propanoic acid] | –
13 | < 0.01 | CC(C)Oc1ncc(-c2nc(-c3cc4[nH]cc(CCC(=O)O)c4cc3F)no2)cc1Cl [Example 111, 3-[6-(5-{5-Chloro-6-[(1-methylethyl)oxy]-3-pyridinyl}-1,2,4-oxadiazol-3-yl)-5-fluoro-1H-indol-3-yl]propanoic acid] | –
14 | – | CCCCCCCCc1ccc(CCC(N)(CO)CO)cc1 [FTY720] | effect on circulating lymphocytes (circulating lymphocytes): reduce circulating lymphocytes; bradycardia [3]: results in bradycardia
